Test results reported in patent US9856232B1, “Dihydropyrimidinone derivatives” (KING SAUD UNIVERSITY, priority 2017, dated 2018).

Assays:
[1] = tested on: Gastric lesions induced by 80% ethanol; assay: Gastric lesions induced by ethanol (ulcer index by severity scores); format: in vivo, Albino Wistar rats; details: Rattus norvegicus, po, vs 80% EtOH group, read-out: Gastric lesions induced by 80% ethanol, % change; for inhibition in vivo at 12.5 mg/kg: compound 12.5 mg/kg; for inhibition in vivo at 25 mg/kg: compound 25 mg/kg; for inhibition in vivo at 50 mg/kg: compound 50 mg/kg
Protocol: Albino Wistar rats of either sex, approximately the same age, weighing 150 to 200 g and fed on a diet of standard chow were used in this study. They were randomly divided into experimental groups of six rats each. Compounds (N-1 to N-18) 12.5, 25, and 50 mg/kg were given orally in the anti-ulcer studies and intraperitoneally for gastric secretion evaluation. The rats were sacrificed, and the stomachs removed and opened along the greater curvature, After washing with saline, the gastric lesions were quantified by a person unaware of the treatments. The animal study protocol was approved by the Research and Ethics Committee of the Experimental Animal Care Society, College of Pharmacy, King Saud University, Riyadh, Saudi Arabia.
Gastric lesions induced by ethanol: Albino rats of either sex weighing between (150-200 g) are divided into groups. The animals were fasted for 24 hours with free access to water. Animals were given test drugs or standard drug. One hour later 1 mL/200 gm of 80% ethanol is administered orally to each animal. The animals were anaesthetized 1 hour latter with anesthetic ether and stomach was incised along the greater curvature and ulceration was scored. The number of ulcers and the length of each ulcer were measured. Ulcer index was calculated using severity scores. The mucosal damage was examined by means of a magnifying glass. For each stomach the mucosal damage was assessed according to the following scoring system: 0.5 redness; 1.0 spot ulcers; 1.5 hemorrhagic streaks; 2.0 ulcers<3, but≦5; 3.0 ulcers>5. Table 1 provides the effect of compounds on gastric lesions induced by 80% ethanol (mean±SE).

Row | melting point | Compound | inhibition in vivo at 12.5 mg/kg [1] | inhibition in vivo at 25 mg/kg [1] | inhibition in vivo at 50 mg/kg [1]
1 | 190 to 192 °C | O=C1NC=C(C(=O)c2ccc(N3CCCCC3)cc2)C(c2cccc(O)c2)N1 (centres unmarked) [Compound N-10, 4-(3-Hydroxyphenyl)-5-[4-(piperidin-1-yl)benzoyl]-3,4-dihydropyrimidin-2(1H)-one] | 14% | 17.8% | 21.4%
2 | 135 to 137 °C | COc1ccc(C2NC(=O)NC=C2C(=O)c2ccc(N3CCCCC3)cc2)c(OC)c1 (centres unmarked) [Compound N-18, 4-(2,4-Dimethoxyphenyl)-5-[4-(piperidin-1-yl)benzoyl]-3,4-dihydropyrimiden-2(1H)-one] | 6.4% | 16.1% | 22.5%
3 | 190 to 192 °C | O=C1NC=C(C(=O)c2ccc(N3CCCCC3)cc2)C(c2ccccc2[N+](=O)[O-])N1 (centres unmarked) [Compound N-2, 4-(2-Nitrophenyl)-5-[4-(piperidin-1-yl)benzoyl]-3,4-dihydropyrimidine-2(1H)-one] | 14.2% | 21.4% | 28.5%
4 | 220 to 222 °C | O=C1NC=C(C(=O)c2ccc(N3CCCCC3)cc2)C(c2ccccc2)N1 (centres unmarked) [Compound N-1, 4-Phenyl-5-[4-(piperidin-1-yl)benzoyl]-3,4-dihydropyrimidin-2(1H)-one] |  |  | 
5 | 200 to 202 °C | CCOc1ccc(C2NC(=O)NC=C2C(=O)c2ccc(N3CCCCC3)cc2)cc1 (centres unmarked) [Compound N-13, 4-(4-Ethoxyphenyl)-5-[4-(piperidin-1-yl)benzoyl]-3,4-dihydropyrimidin-2(1H)-one] |  | 7.1% | 14.2%
6 | 210 to 212 °C | O=C1NC=C(C(=O)c2ccc(N3CCCCC3)cc2)C(c2ccc(O)cc2)N1 (centres unmarked) [Compound N-9, 4-(4-Hydroxyphenyl)-5-[4-(piperidin-1-yl)benzoyl]-3,4-dihydropyrimidin-2(1H)-one] |  | 2% | 
7 | 160 to 162 °C | COc1cccc(C2NC(=O)NC=C2C(=O)c2ccc(N3CCCCC3)cc2)c1 (centres unmarked) [Compound N-12, 4-(3-Methoxyphenyl)-5-[4-(piperidin-1-yl)benzoyl]-3,4-dihydropyrimidin-2(1H)-one] |  | 7.1% | 10.7%
8 | 155 to 157 °C | COc1cc(OC)c(C2NC(=O)NC=C2C(=O)c2ccc(N3CCCCC3)cc2)cc1OC (centres unmarked) [Compound N-14, 4-(2,4,5-Trimethoxyphenyl)-5-[4-(piperidin-1-yl)benzoyl]-3,4-dihydropyrimiden-2(1H)-one] | 10.3% | 27.5% | 37.9%
9 | 140 to 142 °C | COc1cc(OC)c(C2NC(=O)NC=C2C(=O)c2ccc(N3CCCCC3)cc2)c(OC)c1 (centres unmarked) [Compound N-17, 4-(2,4,6-Trimethoxyphenyl)-5-[4-(piperidin-1-yl)benzoyl]-3,4-dihydropyrimidin-2(1H)-one] |  | 27.5% | 37.9%
10 | 185 to 187 °C | O=C1NC=C(C(=O)c2ccc(N3CCCCC3)cc2)C(c2cccc([N+](=O)[O-])c2)N1 (centres unmarked) [Compound N-4, 4-(3-Nitrophenyl)-5-[4-(piperidin-1-yl)benzoyl]-3,4-dihydropyrimidin-2(1H)-one] |  |  | 7.4%
11 | 135 to 137 °C | COc1cc(C2NC(=O)NC=C2C(=O)c2ccc(N3CCCCC3)cc2)cc(OC)c1OC (centres unmarked) [Compound N-16, 4-(3,4,5-Trimethoxyphenyl)-5-[4-(piperidin-1-yl)benzoyl]-3,4-dihydropyrimidin-2(1H)-one] | 7.1% | 17.8% | 21.4%
12 | 230 to 232 °C | O=C1NC=C(C(=O)c2ccc(N3CCCCC3)cc2)C(c2ccc(Cl)cc2)N1 (centres unmarked) [Compound N-5, 4-(4-Chlorophenyl)-5-[4-(piperidin-1-yl)benzoyl]-3,4-dihydropyrimidin-2(1H)-one] |  | 7.1% | 10.7%
13 | 145 to 147 °C | COc1ccc(C2NC(=O)NC=C2C(=O)c2ccc(N3CCCCC3)cc2)cc1OC (centres unmarked) [Compound N-7, 4-(3,4-Dimethoxyphenyl)-5-[4-(piperidin-1-yl)benzoyl]-3,4-dihydropyrimidin-2(1H)-one] | 10% | 26.6% | 33.3%
14 | 195 to 197 °C | O=C1NC=C(C(=O)c2ccc(N3CCCCC3)cc2)C(c2ccc(Cl)cc2Cl)N1 (centres unmarked) [Compound N-6, 4-(2,4-Dichlorophenyl)-5-[4-(piperidin-1-yl)benzoyl]-3,4-dihydropyrimidin-2(1H)-one] |  | 7.1% | 10.7%
